Test results from ChEMBL document CHEMBL1138160, “In vivo stability and photodynamic efficacy of fluorinated bacteriopurpurinimides derived from bacteriochlorophyll-a” (2006).

Tests used:
Mus musculus = assay: In vivo photosensitizing efficacy in RIF cells of C3H mouse at 1 umol/kg 90 days post-dose; type: functional
RIF-1 = assay: Photosensitizing efficacy in RIF cells at 0.6-2.5 uM and light dose of 0-10 J/cm2 by MTT assay; type: functional, cell-based; conditions: Mus musculus

CC[C@H]1c2cc3nc4c(c5[nH]c(cc6[nH]c(cc(n2)[C@@H]1C)c(C(C)NCc1cc(C(F)(F)F)cc(C(F)(F)F)c1)c6C)[C@@H](C)[C@@H]5CCC(=O)OC)C(=O)N(Cc1cc(C(F)(F)F)cc(C(F)(F)F)c1)C(=O)C4=C3C (some centres not stated)
Activity (Mus musculus): 60%
Activity (RIF-1): Dose-dependent effect
